Assay results as given in PubChem BioAssay AID248 (DTP/NCI, 2004).
Values joined by “and” are separate entries in the source; they are usually repeats but may differ in a detail not shown here. Equal entries are not always repeated. Toxic doses and inconclusive results are not listed. Cut-off read from the data, not from the text of the source: active = T/C of 150% or more; inactive = T/C below 125%.

Test system: L1210 leukemia ip in BDF1 mice, survival T/C
Test: NCI In Vivo Anticancer Drug Screen. Data for tumor model L1210 Leukemia (intraperitoneal) in B6D2F1 (BDF1) mice
Conditions: higher = longer survival
Outline: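 Each compound was tested against a transplantable tumor grown in mice. The endpoint was survival, with treated animals benchmarked against vehicle controls as a simple ratio.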

[1] = endpoint: mean survival time, dose: 100.0 mg/kg/injection, schedule: Q01DX009 (ip), vehicle: saline with Tween-80
[2] = endpoint: mean survival time, dose: 200.0 mg/kg/injection, schedule: Q01DX009 (ip), vehicle: saline with Tween-80
[3] = endpoint: mean survival time, dose: 400.0 mg/kg/injection, schedule: Q01DX009 (ip), vehicle: saline with Tween-80
[4] = endpoint: mean survival time, dose: 100.0 mg/kg/injection, schedule: Q01DX001 (ip), vehicle: Klucel (hydroxypropylcellulose) (HPC)
[5] = endpoint: mean survival time, dose: 200.0 mg/kg/injection, schedule: Q01DX001 (ip), vehicle: Klucel (hydroxypropylcellulose) (HPC)
[6] = endpoint: mean survival time, dose: 100.0 mg/kg/injection, schedule: Q01DX009 (ip), vehicle: saline
[7] = endpoint: mean survival time, dose: 100.0 mg/kg/injection, schedule: Q04DX003 (ip), vehicle: saline
[8] = endpoint: mean survival time, dose: 100.0 mg/kg/injection, schedule: Q01DX001 (ip), vehicle: saline
[9] = endpoint: mean survival time, dose: 200.0 mg/kg/injection, schedule: Q01DX001 (ip), vehicle: saline
[10] = endpoint: mean survival time, dose: 200.0 mg/kg/injection, schedule: Q04DX003 (ip), vehicle: saline
[11] = endpoint: mean survival time, dose: 400.0 mg/kg/injection, schedule: Q01DX001 (ip), vehicle: saline
[12] = endpoint: mean survival time, dose: 400.0 mg/kg/injection, schedule: Q04DX003 (ip), vehicle: saline

Measured: T/C

N=C(N)c1ccc(Nc2ccc(C(=N)N)cc2)cc1
inactive: endpoint: mean survival time, dose: 3.0 mg/kg/injection, schedule: Q01DX010 (ip), vehicle: saline 95 % of control and 91 % of control | endpoint: mean survival time, dose: 6.0 mg/kg/injection, schedule: Q01DX010 (ip), vehicle: saline 95 % of control and 91 % of control | endpoint: mean survival time, dose: 12.0 mg/kg/injection, schedule: Q01DX010 (ip), vehicle: saline 94 % of control and 97 % of control | endpoint: mean survival time, dose: 15.0 mg/kg/injection, schedule: Q02DX010 (ip), vehicle: carboxymethylcellulose (CMC) 99 % of control | endpoint: mean survival time, dose: 24.0 mg/kg/injection, schedule: Q01DX010 (ip), vehicle: saline 89 % of control and 91 % of control | endpoint: mean survival time, dose: 30.0 mg/kg/injection, schedule: Q02DX010 (ip), vehicle: carboxymethylcellulose (CMC) 103 % of control | endpoint: mean survival time, dose: 44.0 mg/kg/injection, schedule: Q02DX010 (ip), vehicle: carboxymethylcellulose (CMC) 89 % of control | endpoint: mean survival time, dose: 47.0 mg/kg/injection, schedule: Q01DX001 (ip), vehicle: water 97 % of control | endpoint: mean survival time, dose: 66.0 mg/kg/injection, schedule: Q02DX010 (ip), vehicle: carboxymethylcellulose (CMC) 77 % of control | endpoint: median survival time, dose: 6.0 mg/kg/injection, schedule: Q01DX009 (ip), vehicle: saline 105 % of control and 112 % of control | endpoint: median survival time, dose: 12.0 mg/kg/injection, schedule: Q01DX009 (ip), vehicle: saline 112 % of control | endpoint: median survival time, dose: 24.0 mg/kg/injection, schedule: Q01DX009 (ip), vehicle: saline 87 % of control

O=C(NCCN1CC1)C(=O)NCCN1CC1
inactive: endpoint: mean survival time, dose: 6.0 mg/kg/injection, schedule: Q04DX003 (ip), vehicle: Klucel (hydroxypropylcellulose) (HPC) 95 % of control | endpoint: mean survival time, dose: 12.5 mg/kg/injection, schedule: Q04DX003 (ip), vehicle: Klucel (hydroxypropylcellulose) (HPC) 122 % of control
active: endpoint: mean survival time, dose: 1.7 mg/kg/injection, schedule: Q04DX003 (ip), vehicle: Klucel (hydroxypropylcellulose) (HPC) 173 % of control | endpoint: mean survival time, dose: 2.6 mg/kg/injection, schedule: Q04DX003 (ip), vehicle: Klucel (hydroxypropylcellulose) (HPC) 153 % of control and 186 % of control | endpoint: mean survival time, dose: 3.12 mg/kg/injection, schedule: Q04DX003 (ip), vehicle: Klucel (hydroxypropylcellulose) (HPC) 187 % of control | endpoint: mean survival time, dose: 3.12 mg/kg/injection, schedule: Q04DX003 (ip), vehicle: saline with Tween-80 179 % of control | endpoint: mean survival time, dose: 4.0 mg/kg/injection, schedule: Q04DX003 (ip), vehicle: Klucel (hydroxypropylcellulose) (HPC) 207 % of control | endpoint: mean survival time, dose: 6.25 mg/kg/injection, schedule: Q04DX003 (ip), vehicle: Klucel (hydroxypropylcellulose) (HPC) 258 % of control

CCn1c(N)c(N=O)c(=O)[nH]c1=O
inactive: endpoint: mean survival time, dose: 100.0 mg/kg/injection, schedule: Q01DX009 (ip), vehicle: gum acacia 95 % of control | endpoint: mean survival time, dose: 200.0 mg/kg/injection, schedule: Q01DX009 (ip), vehicle: gum acacia 99 % of control

C[Si](C)(C)Cc1ccccc1
inactive: endpoint: mean survival time, dose: 50.0 mg/kg/injection, schedule: Q01DX001 (ip), vehicle: carboxymethylcellulose (CMC) 93 % of control | endpoint: mean survival time, dose: 200.0 mg/kg/injection, schedule: Q01DX001 (ip), vehicle: carboxymethylcellulose (CMC) 95 % of control

CCOP(=O)(OCC)C(=Cc1ccccc1)P(=O)(OCC)OCC
inactive: endpoint: mean survival time, dose: 100.0 mg/kg/injection, schedule: Q01DX001 (ip), vehicle: saline with Tween-80 106 % of control | [1] 107 % of control | endpoint: mean survival time, dose: 200.0 mg/kg/injection, schedule: Q01DX001 (ip), vehicle: saline with Tween-80 103 % of control | [2] 105 % of control | endpoint: mean survival time, dose: 400.0 mg/kg/injection, schedule: Q01DX001 (ip), vehicle: saline with Tween-80 103 % of control | [3] 107 % of control

O=C1CC(c2ccccc2)=CN1c1ccc(Cl)cc1
inactive: endpoint: mean survival time, dose: 100.0 mg/kg/injection, schedule: Q04DX002 (ip), vehicle: Klucel (hydroxypropylcellulose) (HPC) 89 % of control | endpoint: mean survival time, dose: 200.0 mg/kg/injection, schedule: Q04DX002 (ip), vehicle: Klucel (hydroxypropylcellulose) (HPC) 104 % of control | endpoint: mean survival time, dose: 400.0 mg/kg/injection, schedule: Q04DX002 (ip), vehicle: Klucel (hydroxypropylcellulose) (HPC) 112 % of control

c1ccc(-c2[nH]c(-c3ccccc3)c(-c3ccccc3)c2-c2ccccc2)cc1
inactive: endpoint: mean survival time, dose: 50.0 mg/kg/injection, schedule: Q01DX009 (ip), vehicle: saline with Tween-80 102 % of control | [1] 95 % of control | [2] 95 % of control

Cc1ccc(NC(=O)CCc2ccc(N3C(N)=NC(N)=NC3(C)C)cc2)cc1S(=O)(=O)F
inactive: [4] 90 % of control | [5] 108 % of control

CC1CCc2cccc(NC(=O)NCCCl)c21 (stereo not given)
inactive: [4] 99 % of control | endpoint: mean survival time, dose: 100.0 mg/kg/injection, schedule: Q04DX003 (ip), vehicle: Klucel (hydroxypropylcellulose) (HPC) 92 % of control | [5] 91 % of control | endpoint: mean survival time, dose: 200.0 mg/kg/injection, schedule: Q04DX003 (ip), vehicle: Klucel (hydroxypropylcellulose) (HPC) 92 % of control | endpoint: mean survival time, dose: 400.0 mg/kg/injection, schedule: Q01DX001 (ip), vehicle: Klucel (hydroxypropylcellulose) (HPC) 96 % of control | endpoint: mean survival time, dose: 400.0 mg/kg/injection, schedule: Q04DX003 (ip), vehicle: Klucel (hydroxypropylcellulose) (HPC) 92 % of control

O=C(O)c1ccccc1NC(C(=O)O)c1ccccc1 (stereo not given)
inactive: endpoint: mean survival time, dose: 100.0 mg/kg/injection, schedule: Q04DX002 (ip), vehicle: saline with Tween-80 100 % of control | endpoint: mean survival time, dose: 200.0 mg/kg/injection, schedule: Q04DX002 (ip), vehicle: saline with Tween-80 96 % of control | endpoint: mean survival time, dose: 400.0 mg/kg/injection, schedule: Q04DX002 (ip), vehicle: saline with Tween-80 96 % of control

CCOC(=O)CCN(Cc1ccccc1)C(=S)Nc1ccccc1
inactive: endpoint: mean survival time, dose: 25.0 mg/kg/injection, schedule: Q01DX Z (ip), vehicle: methylcellulose (MC) 98 % of control

COc1ccc2c(c1C)CCC1(C(=O)O)CC(C)C(O)CC21 (stereo not given)
inactive: endpoint: mean survival time, dose: 100.0 mg/kg/injection, schedule: Q01DX009 (ip), vehicle: saline sonified 98 % of control | endpoint: mean survival time, dose: 200.0 mg/kg/injection, schedule: Q01DX009 (ip), vehicle: saline sonified 96 % of control | endpoint: mean survival time, dose: 400.0 mg/kg/injection, schedule: Q01DX009 (ip), vehicle: saline sonified 96 % of control

O=C1Nc2c(Cl)cccc2C1=O
inactive: endpoint: mean survival time, dose: 25.0 mg/kg/injection, schedule: Q01DX009 (ip), vehicle: saline 92 % of control | endpoint: mean survival time, dose: 25.0 mg/kg/injection, schedule: Q04DX003 (ip), vehicle: saline 98 % of control | endpoint: mean survival time, dose: 50.0 mg/kg/injection, schedule: Q01DX009 (ip), vehicle: saline 94 % of control | endpoint: mean survival time, dose: 50.0 mg/kg/injection, schedule: Q04DX003 (ip), vehicle: saline 98 % of control | [6] 92 % of control | [7] 96 % of control

O=c1nc2n(CCC[N+](=O)[O-])c3ccccc3nc-2c(=O)[nH]1
inactive: [8] 102 % of control | [7] 88 % of control | [9] 98 % of control | [10] 96 % of control | [11] 102 % of control | [12] 115 % of control

F[Si](c1cccc2ccccc12)(c1cccc2ccccc12)c1cccc2ccccc12
inactive: [1] 93 % of control | endpoint: mean survival time, dose: 100.0 mg/kg/injection, schedule: Q04DX003 (ip), vehicle: saline with Tween-80 92 % of control | [2] 87 % of control | endpoint: mean survival time, dose: 200.0 mg/kg/injection, schedule: Q04DX003 (ip), vehicle: saline with Tween-80 90 % of control | [3] 103 % of control | endpoint: mean survival time, dose: 400.0 mg/kg/injection, schedule: Q04DX003 (ip), vehicle: saline with Tween-80 97 % of control

COc1ccc(OC)c(NC(=O)c2ccc(F)cc2)c1
inactive: endpoint: mean survival time, dose: 100.0 mg/kg/injection, schedule: Q01DX009 (ip), vehicle: Klucel (hydroxypropylcellulose) (HPC) 98 % of control | endpoint: mean survival time, dose: 200.0 mg/kg/injection, schedule: Q01DX009 (ip), vehicle: Klucel (hydroxypropylcellulose) (HPC) 107 % of control | endpoint: mean survival time, dose: 400.0 mg/kg/injection, schedule: Q01DX009 (ip), vehicle: Klucel (hydroxypropylcellulose) (HPC) 96 % of control

c1ccc(C(=C2CC34CCCC23CC4)c2ccccc2)cc1 (stereo not given)
inactive: endpoint: mean survival time, dose: 37.5 mg/kg/injection, schedule: Q04DX002 (ip), vehicle: saline with Tween-80 95 % of control | endpoint: mean survival time, dose: 75.0 mg/kg/injection, schedule: Q04DX002 (ip), vehicle: saline with Tween-80 98 % of control | endpoint: mean survival time, dose: 150.0 mg/kg/injection, schedule: Q04DX002 (ip), vehicle: saline with Tween-80 91 % of control | endpoint: mean survival time, dose: 300.0 mg/kg/injection, schedule: Q04DX002 (ip), vehicle: saline with Tween-80 91 % of control

COP(=O)(CCBr)OC
inactive: [8] 103 % of control | [6] 101 % of control | [7] 104 % of control | [9] 102 % of control | endpoint: mean survival time, dose: 200.0 mg/kg/injection, schedule: Q01DX009 (ip), vehicle: saline 103 % of control | [10] 104 % of control | [11] 108 % of control | endpoint: mean survival time, dose: 400.0 mg/kg/injection, schedule: Q01DX009 (ip), vehicle: saline 98 % of control | [12] 106 % of control
